ChEMBL document CHEMBL5247610, “Discovery of 5-((4-(pyridin-3-yl)pyrimidin-2-yl)amino)-1H-indole-2-carboxamide derivatives as novel anti-cancer agents targeting Nur77” (Eur J Med Chem, 2022)
Calls of active or inactive are those of the source. The calls are words filed in the database; no cut-off is given here.

Key:
SMMC-7721 = experiment: Antiproliferative activity against human SMMC-7721 cells assessed as reduction in cell viability incubated for 48 hrs by MTT assay; type: functional, cell-based; conditions: SMMC-7721, 48 h
A549 = experiment: Antiproliferative activity against human A549 cells assessed as reduction in cell viability incubated for 48 hrs by MTT assay; type: functional, cell-based; conditions: A549, 48 h
[1] = Toxicity in Zebra fish AB embryo assessed as mortality rate at 1 uM incubated for 72 hrs; parameters: species or system Danio rerio; conditions: zebrafish, read-out: Activity
[2] = Cytotoxicity against human L02 cells assessed as reduction in cell viability incubated for 48 hrs by MTT assay; type: toxicity, cell-based
[3] = Selectivity index, ratio of IC50 for human L02 cells to IC50 for human HeLa cells by MTT assay; type: toxicity; conditions: L02 cells versus HeLa cells, read-out: Ratio IC50
Huh-7 = experiment: Antiproliferative activity against human Huh-7 cells assessed as reduction in cell viability incubated for 48 hrs by MTT assay; type: functional, cell-based; conditions: Huh-7, 48 h
[4] = Cytotoxicity against human L02 cells assessed as cell viability at 10 uM incubated for 48 hrs by MTT assay; type: toxicity, cell-based; conditions: read-out: Activity
[5] = Toxicity in Zebra fish AB embryo assessed as mortality rate at 1 uM incubated for 24 hrs; parameters: species or system Danio rerio; conditions: zebrafish, read-out: Activity
[6] = Selectivity index, ratio of IC50 for human L02 cells to IC50 for human A549 cells by MTT assay; type: toxicity; conditions: L02 cells versus A549 cells, read-out: Ratio IC50
[7] = Selectivity index, ratio of IC50 for human L02 cells to IC50 for human HepG2 cells by MTT assay; type: toxicity; conditions: L02 cells versus HepG2 cells, read-out: Ratio IC50
[8] = Selectivity index, ratio of IC50 for human L02 cells to IC50 for human Huh-7 cells by MTT assay; type: toxicity; conditions: L02 cells versus Huh-7 cells, read-out: Ratio IC50
MDA-MB-231 = experiment: Antiproliferative activity against human MDA-MB-231 cells assessed as reduction in cell viability incubated for 48 hrs by MTT assay; type: functional, cell-based; conditions: MDA-MB-231, 48 h
[9] = biological target: T1, Nuclear receptor subfamily 4immunitygroup A member 1 (Homo sapiens, UniProt P22736); experiment: Binding affinity to pBind-Nur77-LBD (unknown origin) transfected in HEK293T cells co-transfected with pG5-Luc assessed as inhibition of Nur77 transcriptional activity by measuring inhibition of Nur77-driven luciferase activity at 2 uM incubated for 12 hrs by luciferase reporter gene assay; type: cell-based; conditions: filed as modulator
T1 sequence (P22736 whole entry, the tested form may be a part): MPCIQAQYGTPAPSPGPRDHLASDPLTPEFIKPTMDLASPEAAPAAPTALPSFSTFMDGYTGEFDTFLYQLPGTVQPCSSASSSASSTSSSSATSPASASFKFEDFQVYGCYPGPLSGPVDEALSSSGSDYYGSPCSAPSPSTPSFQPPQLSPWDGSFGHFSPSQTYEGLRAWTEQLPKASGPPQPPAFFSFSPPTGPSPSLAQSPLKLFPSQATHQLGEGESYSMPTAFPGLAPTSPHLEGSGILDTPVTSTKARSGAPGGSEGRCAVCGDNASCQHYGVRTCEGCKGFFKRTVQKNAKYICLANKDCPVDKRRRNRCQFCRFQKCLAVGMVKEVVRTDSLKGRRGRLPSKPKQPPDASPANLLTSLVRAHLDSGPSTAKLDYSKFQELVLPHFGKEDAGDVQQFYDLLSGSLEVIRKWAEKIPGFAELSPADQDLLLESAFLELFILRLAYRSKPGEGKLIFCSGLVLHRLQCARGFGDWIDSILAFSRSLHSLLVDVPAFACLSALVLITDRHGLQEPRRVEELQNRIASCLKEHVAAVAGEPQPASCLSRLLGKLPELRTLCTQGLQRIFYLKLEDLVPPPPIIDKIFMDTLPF

[10] = Selectivity index, ratio of IC50 for human L02 cells to IC50 for human SMMC-7721 cells by MTT assay; type: toxicity; conditions: L02 cells versus SMMC-7721 cells, read-out: Ratio IC50
[11] = Toxicity in Zebra fish AB embryo assessed as mortality rate at 0.5 uM incubated for 24 hrs; parameters: species or system Danio rerio; conditions: zebrafish, read-out: Activity
[12] = Toxicity in Zebra fish AB embryo assessed as mortality rate at 0.5 uM incubated for 72 hrs; parameters: species or system Danio rerio; conditions: zebrafish, read-out: Activity
HeLa [13] = experiment: Antiproliferative activity against human HeLa cells assessed as cell viability at 10 uM incubated for 48 hrs by MTT assay; type: functional; conditions: read-out: Activity
HeLa [14] = experiment: Antiproliferative activity against human HeLa cells assessed as reduction in cell viability incubated for 48 hrs by MTT assay; type: functional, cell-based
HepG2 [15] = experiment: Antiproliferative activity against human HepG2 cells assessed as reduction in cell viability incubated for 48 hrs by MTT assay; type: functional, cell-based; conditions: HepG2, 48 h
[16] = Selectivity index, ratio of IC50 for human L02 cells to IC50 for human MDA-MB-231 cells by MTT assay; type: toxicity; conditions: L02 cells versus MDA-MB-231 cells, read-out: Ratio IC50
HepG2 [17] = experiment: Antiproliferative activity against human HepG2 cells assessed as cell viability at 10 uM incubated for 48 hrs by MTT assay; type: functional; conditions: read-out: Activity
[18] = biological target: T1, Nuclear receptor subfamily 4immunitygroup A member 1; experiment: Binding affinity to Nur77-LBD (unknown origin)
[19] = biological target: T1, Nuclear receptor subfamily 4immunitygroup A member 1; experiment: Binding affinity to Nur77 (unknown origin)

SMILES	viability at 48 h, 10 µM [4]	viability at 10 µM (HeLa [13])	viability at 10 µM (HepG2 [17])	further results
CC1=C(O)C(=O)C=C2C1=CC=C1[C@@]2(C)CC[C@@]2(C)[C@@H]3C[C@](C)(C(=O)O)CC[C@]3(C)CC[C@]12C [CELASTROL]	13%	49.2%	18.7%	IC50 (SMMC-7721): 6.04 µM; IC50 (A549): 4.99 µM; mortality at 72 h, 1 µM [1]: 100%; IC50 at 48 h [2]: 1.12 µM; selectivity ratio [3]: 0.87; IC50 (Huh-7): 4.45 µM; mortality at 24 h, 1 µM [5]: 100%; selectivity ratio [6]: 0.22; selectivity ratio [7]: 0.3; selectivity ratio [8]: 0.25; IC50 (MDA-MB-231): 1.08 µM; Activity [9]: Active; selectivity ratio [10]: 0.19; mortality at 24 h, 0.5 µM [11]: 30%; mortality at 72 h, 0.5 µM [12]: 94%; IC50 (HeLa [14]): 1.21 µM; IC50 (HepG2 [15]): 3.73 µM; selectivity ratio [16]: 1.04
Cc1ccc(NC(=O)c2cc3cc(Nc4nccc(-c5cccnc5)n4)ccc3[nH]2)cc1C	55.8%	43.4%	69.9%	–
Nc1ccccc1NC(=O)c1cc2cc(Nc3nccc(-c4cccnc4)n3)ccc2[nH]1	71.1%	33.2%	76.4%	–
O=C(NCc1cccc(F)c1)c1cc2cc(Nc3nccc(-c4cccnc4)n3)ccc2[nH]1	71.1%	80%	82.5%	–
O=C(Nc1cc(Br)ccn1)c1cc2cc(Nc3nccc(-c4cccnc4)n3)ccc2[nH]1	81.1%	115%	85.9%	–
COc1ccc2ccccc2c1/C=N/NC(=O)c1cc2cc(Nc3cc(C)nc4c(OC)cccc34)ccc2[nH]1	–	–	–	Kd [18]: 2.25 µM
O=C(NC12CC3CC(CC(C3)C1)C2)c1cc2cc(Nc3nccc(-c4cccnc4)n3)ccc2[nH]1	81.3%	124%	83.4%	–
O=C(NCCN1CCCCC1)c1cc2cc(Nc3nccc(-c4cccnc4)n3)ccc2[nH]1	59.1%	24.9%	53.7%	–
CCN(CC)CCCNC(=O)c1cc2cc(Nc3nccc(-c4cccnc4)n3)ccc2[nH]1	82.6%	39.4%	67.8%	–
COc1cccc(NC(=O)c2cc3cc(Nc4nccc(-c5cccnc5)n4)ccc3[nH]2)c1	68.6%	30.2%	55.2%	–
Cc1ccc(NC(=O)c2cc3cc(Nc4nccc(-c5cccnc5)n4)ccc3[nH]2)c(C)c1	48.3%	38.3%	59.8%	–
Cc1ccc(NC(=O)c2cc3cc(Nc4nccc(-c5cccnc5)n4)ccc3[nH]2)cc1Nc1nccc(-c2cccnc2)n1	79.6%	95.9%	86.5%	–
COc1cc(NC(=O)c2cc3cc(Nc4nccc(-c5cccnc5)n4)ccc3[nH]2)cc(OC)c1OC	43.6%	44.6%	83.3%	–
O=C(Nc1ccc(F)c(F)c1F)c1cc2cc(Nc3nccc(-c4cccnc4)n3)ccc2[nH]1	109%	99.8%	114%	–
COc1ccc(NC(=O)c2cc3cc(Nc4nccc(-c5cccnc5)n4)ccc3[nH]2)c(C)c1	69%	54.8%	82.9%	–
Cc1ccccc1NC(=O)c1cc2cc(Nc3nccc(-c4cccnc4)n3)ccc2[nH]1	84.1%	35.4%	90.4%	–
COc1ccc(NC(=O)c2cc3cc(Nc4nccc(-c5cccnc5)n4)ccc3[nH]2)cc1OC	91.9%	74.4%	109%	–
O=C(NCc1ccccc1)c1cc2cc(Nc3nccc(-c4cccnc4)n3)ccc2[nH]1	94.8%	82%	113%	–
Nc1ccc(Cl)cc1NC(=O)c1cc2cc(Nc3nccc(-c4cccnc4)n3)ccc2[nH]1	62.3%	89.5%	97.7%	–
CCCCNC(=O)c1cc2cc(Nc3nccc(-c4cccnc4)n3)ccc2[nH]1	102%	104%	107%	–
O=C(Nc1cncnc1)c1cc2cc(Nc3nccc(-c4cccnc4)n3)ccc2[nH]1	76.2%	108%	81.6%	–
O=C(c1cc2cc(Nc3nccc(-c4cccnc4)n3)ccc2[nH]1)N1CCOCC1	62.3%	36.8%	78.2%	–
Cc1ccc(NC(=O)c2cc3cc(Nc4nccc(-c5cccnc5)n4)ccc3[nH]2)c(N)c1	38.3%	29.5%	36.2%	–
COc1cc(NC(=O)c2cc3cc(Nc4nccc(-c5cccnc5)n4)ccc3[nH]2)cc(OC)c1	43.6%	29.7%	40.8%	–
O=C(N/N=C/c1ccncc1)c1cc2cc(Nc3ccnc4ccccc34)ccc2[nH]1	–	–	–	Kd [19]: 1.17 µM
O=C(Nc1ccccc1)c1cc2cc(Nc3nccc(-c4cccnc4)n3)ccc2[nH]1	70.9%	46.4%	84.4%	–
